Experimental data taken from patent US20060069132A1, “Azolecarboxamide herbicides” (priority 2004, published 2006).

How the values were obtained:
Surinam grass = test: Test B pre-/postemergence herbicide test; assay type: in vivo, Urochloa decumbens; details: for Surinam Grass plant response rating: postemergence, scale 0 (no effect) to 100 (complete control)
In short: (§1)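 Seeds were planted and treated preemergence with compounds formulated in a non-phytotoxic solvent mixture containing surfactant, while plants at the 1- to 4-leaf stage (2 to 18 cm) received postemergence sprays. Flooded paddy plants were grown to the 2-leaf stage. After 13 to 15 days in a greenhouse, injury was visually rated 0–100 against untreated controls.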

velvetleaf = test: Test B pre-/postemergence herbicide test; assay type: in vivo, Abutilon theophrasti; details: for Velvetleaf plant response rating: postemergence, scale 0 (no effect) to 100 (complete control)
In short: as §1

cocklebur = test: Test B pre-/postemergence herbicide test; assay type: in vivo, Xanthium strumarium; details: for Cocklebur plant response rating: postemergence, scale 0 (no effect) to 100 (complete control)
In short: (§2)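 Species tested were Echinochloa crus-galli, Ipomoea coccinea, Xanthium strumarium and Oryza sativa, treated both before emergence and at the 1- to 4-leaf stage; rice and barnyardgrass were also tested under flooding at 2 leaves. Greenhouse incubation lasted 13–15 days before visual 0–100 scoring.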

ducksalad [1] = test: Test B flooded paddy test; assay type: in vivo, Heteranthera limosa; details: 1000 g ai/ha, visual rating, scale 0 to 100 (0 no effect, 100 complete control), 13 to 15 days
In short: (§3)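 Plants grow to 1- to 4-leaf stage (2–18 cm) for postemergence spraying, or to 2-leaf stage for the paddy test. Formulated compound is applied. Greenhouse holding lasts 13–15 days. Response is scored visually relative to controls, 0 no effect to 100 complete control; a dash means no result.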

lambsquarters = test: Test B pre-/postemergence herbicide test; assay type: in vivo, Chenopodium album; details: for Lambsquarters plant response rating: postemergence, scale 0 (no effect) to 100 (complete control)
In short: as §1

blackgrass = test: Test B postemergence herbicide test; assay type: in vivo, Alopecurus myosuroides; details: postemergence, visual rating, scale 0 (no effect) to 100 (complete control)
In short: as §3

[2] = tested on: small flower umbrella sedge; test: Test B flooded paddy test; assay type: in vivo, Cyperus difformis; details: 1000 g ai/ha, visual rating, scale 0 to 100 (0 no effect, 100 complete control), 13 to 15 days
In short: as §3

ducksalad [3] = test: Test C flooded paddy test; assay type: in vivo, Heteranthera limosa
corn = test: Test B pre-/postemergence herbicide test; assay type: in vivo, Zea mays; details: for Corn plant response rating: postemergence, scale 0 (no effect) to 100 (complete control)
In short: as §1

large crabgrass = test: Test B pre-/postemergence herbicide test; assay type: in vivo, Digitaria sanguinalis; details: for Crabgrass, Large plant response rating: postemergence, scale 0 (no effect) to 100 (complete control)
In short: as §1

rice [4] = test: Test C flooded paddy test; assay type: in vivo, Oryza sativa
In short: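 Plants were grown to the 1- to 4-leaf stage (2–18 cm) and then treated postemergence, or grown to the 2-leaf stage for the flooded paddy test. They were held in a greenhouse for 12 to 14 days and then scored by eye against controls, where 0 is no effect and 100 is complete control.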

barnyardgrass [5] = test: Test B flooded paddy test; assay type: in vivo, Echinochloa crus-galli; details: 1000 g ai/ha, visual rating, scale 0 to 100 (0 no effect, 100 complete control), 13 to 15 days
In short: as §3

wild oat = test: Test B postemergence herbicide test; assay type: in vivo, Avena fatua; details: postemergence, visual rating, scale 0 (no effect) to 100 (complete control)
In short: (§4)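 Formulated test chemicals went onto postemergence plants measuring 2 to 18 cm, at one to four leaves. For the paddy assay, species had reached two leaves. Scoring took place 13–15 days later by eye, relative to untreated plants, using 0 for no effect up to 100 for full control.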

barnyardgrass [6] = test: Test B pre-/postemergence herbicide test; assay type: in vivo, Echinochloa crus-galli; details: for Barnyardgrass plant response rating: postemergence, scale 0 (no effect) to 100 (complete control)
In short: as §2

pigweed = test: Test B pre-/postemergence herbicide test; assay type: in vivo, Amaranthus retroflexus; details: for Pigweed plant response rating: postemergence, scale 0 (no effect) to 100 (complete control)
In short: as §1

barnyardgrass [7] = test: Test C flooded paddy test; assay type: in vivo, Echinochloa crus-galli
In short: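 Greenhouse test with a 12–14 day hold after application and visual comparison with controls. Emerged plants were 1- to 4-leaf stage (2–18 cm) when sprayed postemergence, and the paddy barnyardgrass was at 2 leaves under flooded conditions. 100 = complete control.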

giant foxtail = test: Test B pre-/postemergence herbicide test; assay type: in vivo, Setaria faberi; details: for Foxtail, Giant plant response rating: postemergence, scale 0 (no effect) to 100 (complete control)
In short: as §1

wheat = test: Test B postemergence herbicide test; assay type: in vivo, Triticum aestivum; set-up: key to Wheat plant response rating: 0 = no effect, 100 = complete control; details: postemergence, visual rating, scale 0 (no effect) to 100 (complete control)
In short: as §4

morningglory = test: Test B pre-/postemergence herbicide test; assay type: in vivo, Ipomoea coccinea; details: for Morningglory plant response rating: postemergence, visual rating, scale 0 (no effect) to 100 (complete control)
In short: as §2

[8] = tested on: smallflower umbrella sedge; test: Test C flooded paddy test; assay type: in vivo, Cyperus difformis
rice [9] = test: Test B pre-/postemergence herbicide test; assay type: in vivo, Oryza sativa; details: 0 = no effect, 100 = complete control, preemergence
In short: as §1

rice [10] = test: Test B flooded paddy test; assay type: in vivo, Oryza sativa; details: 1000 g ai/ha, visual rating, scale 0 to 100 (0 no effect, 100 complete control), 13 to 15 days
In short: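 Visual ratings, 0 (no effect) to 100 (complete control), made versus controls after 13–15 d greenhouse. Paddy plants treated at 2-leaf stage; postemergence plants at 1- to 4-leaf stage, 2–18 cm tall.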

[11] = 125 g ai/ha, 0 = no effect, 100 = complete control, preemergence
[12] = 500 g ai/ha, visual rating, 0 = no effect, 100 = complete control, preemergence
[13] = 125 g ai/ha, scale 0 to 100 (0 no effect, 100 complete control)
[14] = 250 g ai/ha, scale of 0 to 100, 0 is no effect, 100 is complete control
[15] = 500 g ai/ha, visual rating after 12 to 14 days, scale 0 to 100 (0 no effect, 100 complete control)
[16] = 62 g ai/ha, scale 0 to 100 (0 no effect, 100 complete control)

CCNC(=O)c1cccc(NC(=O)c2nn(C(C)(C)C)cc2Cl)c1 [Compound 219]
10: Surinam Grass plant response rating (Surinam grass; 500 g ai/ha, visual rating) | Plant response rating, Velvetleaf (velvetleaf; [12]) | Velvetleaf plant response rating (velvetleaf; 500 g ai/ha, visual rating) | Lambsquarters plant response rating (lambsquarters; 500 g ai/ha, visual rating) | Corn plant response rating (corn; 500 g ai/ha, visual rating) | Crabgrass, Large plant response rating (large crabgrass; 500 g ai/ha, visual rating) | Pigweed plant response rating (pigweed; 125 g ai/ha, visual rating) | Foxtail, Giant plant response rating (giant foxtail; 500 g ai/ha, visual rating)
0: Surinam Grass plant response rating (0 to 100 scale) (Surinam grass; [11]) | Plant response rating, Surinam Grass (Surinam grass; [12]) | Surinam Grass plant response rating (Surinam grass; 125 g ai/ha, visual rating) | Velvetleaf plant response rating (0 to 100 scale) (velvetleaf; [11]) | Velvetleaf plant response rating (velvetleaf; 125 g ai/ha, visual rating) | Cocklebur plant response rating (0 to 100 scale) (cocklebur; [11]) | Plant response rating, Cocklebur (cocklebur; [12]) | Cocklebur plant response rating (cocklebur; 125 g ai/ha, visual rating) | Lambsquarters plant response rating (0 to 100 scale) (lambsquarters; [11]) | Plant response rating, Lambsquarters (lambsquarters; [12]) | Lambsquarters plant response rating (lambsquarters; 125 g ai/ha, visual rating) | Blackgrass plant response rating (blackgrass; 125 g ai/ha) | Blackgrass plant response rating (blackgrass; 500 g ai/ha) | Ducksalad plant response rating (ducksalad [3]; [13]) | Ducksalad plant response rating (ducksalad [3]; [14]) | Plant response rating, Ducksalad (ducksalad [3]; [15]) | Corn plant response rating (0 to 100 scale) (corn; [11]) | Plant response rating, Corn (corn; [12]) | Corn plant response rating (corn; 125 g ai/ha, visual rating) | Crabgrass, Large plant response rating (0 to 100 scale) (large crabgrass; [11]) | Crabgrass, Large plant response rating (large crabgrass; 125 g ai/ha, visual rating) | Rice plant response rating (rice [4]; [16]) | Rice plant response rating (rice [4]; [13]) | Rice plant response rating (rice [4]; [14]) | Plant response rating, Rice (rice [4]; [15]) | Barnyardgrass plant response rating (barnyardgrass [5]) | Oat, Wild plant response rating (wild oat; 125 g ai/ha) | Oat, Wild plant response rating (wild oat; 500 g ai/ha) | Barnyardgrass plant response rating (0 to 100 scale) (barnyardgrass [6]; [11]) | Barnyardgrass plant response rating (barnyardgrass [6]; 125 g ai/ha, visual rating) | Barnyardgrass plant response rating (barnyardgrass [6]; 500 g ai/ha, visual rating) | Pigweed plant response rating (0 to 100 scale) (pigweed; [11]) | Barnyardgrass plant response rating (barnyardgrass [7]; [16]) | Barnyardgrass plant response rating (barnyardgrass [7]; [13]) | Barnyardgrass plant response rating (barnyardgrass [7]; [14]) | Plant response rating, Barnyardgrass (barnyardgrass [7]; [15]) | Foxtail, Giant plant response rating (0 to 100 scale) (giant foxtail; [11]) | Plant response rating, Foxtail, Giant (giant foxtail; [12]) | Foxtail, Giant plant response rating (giant foxtail; 125 g ai/ha, visual rating) | Wheat plant response rating (wheat; 125 g ai/ha) | Wheat plant response rating (wheat; 500 g ai/ha) | Morningglory plant response rating (0 to 100 scale) (morningglory; [11]) | Morningglory plant response rating (morningglory; 125 g ai/ha) | Sedge, Umbrella plant response rating [8, 16] | Sedge, Umbrella plant response rating [8, 13] | Sedge, Umbrella plant response rating [8, 14] | Rice plant response rating (0 to 100 scale) (rice [9]; 125 g ai/ha) | Plant response rating, Rice (rice [9]; 500 g ai/ha, visual rating) | Rice plant response rating (rice [10])
80: Ducksalad plant response rating (ducksalad [1]) | Sedge, Umbrella plant response rating [2] | Plant response rating, Pigweed (pigweed; [12])
100: Plant response rating, Crabgrass, Large (large crabgrass; [12])
20: Cocklebur plant response rating (cocklebur; 500 g ai/ha, visual rating) | Plant response rating, Barnyardgrass (barnyardgrass [6]; [12]) | Pigweed plant response rating (pigweed; 500 g ai/ha, visual rating) | Plant response rating, Sedge, Umbrella [8, 15]
60: Morningglory plant response rating (morningglory; 500 g ai/ha)
